Data: patent US9701651B2, “Methods of treating an overweight or obese subject” (Zafgen, Inc., priority 2008, dated 2017)
“Also recorded” adds a separate entry of the source.

Tested on: DIO mice
Experiment: Weight loss study in diet-induced obese mice (oral administration)
Format: in vivo, C57BL/6NTac mice
Details: 1.0 mg/kg orally in 10% gelucire in deionised water, once a day for 7 days; mice on 60% fat diet; over the course of the 8 days; compared with vehicle group
Experimental: A weight loss study was conducted in obese mice. The mice in this study were not genetically obese, but prior to and during the study, obesity was induced by a high-fat diet. Twelve week-old C57BL/6NTac mice, maintained on a 60% fat diet prior to and during the study, were separated into seven groups, eight animals per group. Average body weight of the mice was approximately 47 g at the start of the study.
Each of […] groups was orally administered 1.0 mg/kg of a compound (fumagillin and compounds B. C, D, E, F and G), in 10% gelucire in deionised water. Compounds B-G are as follows:
Each of these six groups was administered a different compound. One group was orally administered fumagillin at 1.0 mg/kg (ZGN-201) in 10% gelucire in deionised water, and one group was administered ([…] in deionised water(vehicle). Mice received administrations once a day for 7 days.
(Data analyzed by ANCOVA with body weight on Day 1 as covariate followed by multiple tests against vehicle group: *p<0.05; **p<0.01, ***p<0.001.)

Structure (SMILES)	effect on body weight (weight loss)
CO[C@@H]1[C@H](OC(=O)N[C@@H](C(N)=O)C(C)C)CC[C@]2(CO2)[C@H]1[C@@]1(C)O[C@@H]1CC=C(C)C [B]	lost weight
CO[C@@H]1[C@H](OC(=O)NCCC2CCCN2C)CC[C@]2(CO2)[C@H]1[C@@]1(C)O[C@@H]1CC=C(C)C (some centres unmarked) [C]	lost weight; also recorded: losing the most weight of these four groups
CO[C@@H]1[C@H](OC(=O)N[C@@H](C(=O)NCCC2CCCN2C)C(C)C)CC[C@]2(CO2)[C@H]1[C@@]1(C)O[C@@H]1CC=C(C)C (some centres unmarked) [D]	lost weight
CO[C@@H]1[C@H](OC(=O)N[C@@H](C(=O)NCCN2CCCC2)C(C)C)CC[C@]2(CO2)[C@H]1[C@@]1(C)O[C@@H]1CC=C(C)C [E]	lost weight
CO[C@@H]1[C@H](OC(=O)/C=C/C=C/C=C/C=C/C(=O)O)CC[C@]2(CO2)[C@H]1[C@@]1(C)O[C@@H]1CC=C(C)C [fumagillin, reference compound]	lost the most weight
